{"source": "patent US4080471A", "about": "“Use of substituted isopropylaminopropanols for inducing inotropic effects of the human heart” (priority 1976, dated 1978)", "key": {"heart [1]": {"tested_on": "heart", "assay": "Repetitive ventricular response (RVR) / spontaneous arrhythmia in the anesthetized dog", "format": "in vivo", "from_the_text": "(§1) Effects of Compound I and Ouabain On the Heart Contractility and Rhythmicity of the Anesthetized Dog\n(§2) The object of the test was to compare compound I and oubain administered alone and in combination with each other to study the inotropic effect (maximum dP/dt in the left ventricle) and a possibly arrhythmic effect. The latter included an investigation of the ability of the compounds to cause repetitive ventricular response (RVR) when the heart was electrically stimulated via an electrode on the ventricle at the electrically vulnerable phase at the end of the T-wave. Klein et al. (M. Klein, N. S. Nejad, B. Lown, F. Hagemeijer and I. Blair, Circulation Research, 29, 635 (1971)) have shown that digitalis caused RVR at a dose which was about 70% of the dose giving spontaneous ventricular arrhythmias.\n(§3) The dog was anesthetized with Mebumal® 30 mg/kg bodyweight i.v. Artificial respiration was applied. The sinus-node was electrocoagulated and the heart frequency was kept constant at 180 beats/minute in each test by electrical pacing of the auricle. Mean arterial blood pressure was registered from the carotis artery. ECG was registered during the test. Further, the pressure in the left ventricle was registered via a catheter inserted through the apex and connected to a pressure transducer. The intraventricular pressure curve was derivated to obtain maximum dP/dt which is a measure of the contractile force of the heart.\n(§4) The test was started with a series of control registrations, whereupon the compounds were administered 3 times by infusion during five minutes and with an interval of 50 minutes between each infusion.\n(§5) In the experiment with compound I only, the compound was administered in two doses of 10 μg/kg bodyweight and then one dose of 20 μg/kg bodyweight. Ouabain was given in 3 consecutive doses of 20 μg/kg bodyweight. In the combination test ouabain was first given in a dose of 20 μg/kg bodyweight followed by two doses of compound I of 10 and 20 μg/kg bodyweight, respectively."}, "[2]": {"tested_on": "beta-receptors of the heart", "assay": "Beta-adrenergic (chronotropic, heart frequency) effects on anesthetized cat pretreated with reserpine", "format": "in vivo", "conditions": "dose ratio >1 indicates a heart selective effect", "procedure": "(§6) Chronotropic (heart frequency) and vasodilatating effects:\n(§7) When the cats had been anaesthetized with Mebumal® 30 mg/kg bodyweight i.p., an artificial air respiration was started. The two vagus nerves were cut and the blood passing through a femoral artery was fed via a catheter and a pump back to the distal part of the vessel. Parallelly, a pressure transducer was connected by which the perfusion pressure was registered. At a perfusion with a constant flow, the perfusion pressure is directly proportional to the peripheral resistance of the vascular bed of the hind limb. Blood circulation in the foot was interrupted with a ligature. Heart frequency was registered with a cardiotachometer triggered by the ECG. The substances were administered intravenously in increasing doses and the dose-response curves of the heart frequency and the vasodilatation were constructed.\n(§8) Further, the dose ratios (ED50 for vasodilatation/ED50 for heart frequency) are calculated. A dose ratio >1 indicates a heart selective effect."}, "[3]": {"molecular_target": "T1, beta-receptors of the heart (Felis catus, UniProt Q9TST6)", "T1 construct": "Heart frequency was registered with a cardiotachometer triggered by the ECG; from tissue; host or cells: heart of the anaesthetized cat in vivo (reserpine-pretreated, vagotomized)", "T1 sequence (Q9TST6 whole entry)": "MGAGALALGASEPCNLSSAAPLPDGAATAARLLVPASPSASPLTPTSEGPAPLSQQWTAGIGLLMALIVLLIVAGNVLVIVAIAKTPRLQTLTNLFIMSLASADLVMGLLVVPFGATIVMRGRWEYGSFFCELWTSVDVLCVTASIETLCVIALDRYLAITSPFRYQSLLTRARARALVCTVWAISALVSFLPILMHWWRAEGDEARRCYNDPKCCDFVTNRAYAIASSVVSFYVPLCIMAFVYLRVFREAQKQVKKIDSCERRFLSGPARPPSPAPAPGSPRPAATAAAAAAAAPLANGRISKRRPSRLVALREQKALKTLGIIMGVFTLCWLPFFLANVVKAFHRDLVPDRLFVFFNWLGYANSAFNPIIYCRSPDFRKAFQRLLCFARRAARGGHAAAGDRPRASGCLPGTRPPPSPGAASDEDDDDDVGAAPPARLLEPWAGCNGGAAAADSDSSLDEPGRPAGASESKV", "assay": "Beta-adrenergic (chronotropic, heart frequency) effects on anesthetized cat pretreated with reserpine", "format": "in vivo", "procedure": "as §6, §7, §8"}, "heart [4]": {"tested_on": "heart", "assay": "Ventricular arrhythmia in dogs after two-stage ligation of the left anterior coronary artery (third day post infarction)", "format": "in vivo, dog", "procedure": "Harris, A. S. Delayed Development of Ventricular Ectopic Rhythms following Coronary Occlusion, Cir. l, p 1318, (1950) described a method of two-stage ligation of the left anterior coronary artery in the dog. This method produces a multifocal ventricular arrhythmia that generally remains persistent on the first post ligation day (day 1-24 hours post infarct). The arrhythmia slowly disappears, and by the third post-ligation day the animal has essentially a normal sinus rhythm.\nMaling, H. M. and Moran, N. C., Ventricular Arrhythmias Induced by Sympathominetic Amines in Unanesthetized Dogs Following Coronary Artery Occlussion, Cir.\nMETHODS, MATERIALS AND EXPERIMENTAL DESIGN\nSeventeen adult female beagle dogs were used. Their ages ranged from one to three years. These animals were divided into two groups.\nThe first group consisted of 12 dogs and served as a control group. All animals were subjected to a two-stage ligation of the left anterior coronary artery. On the first post operative day these twelve animals were given various experimental antiarrhythmic agents as part of a routine testing procedure. It should be noted that, due to the nature of these agents, there would be no test drug or only trace amounts of test drug in the blood on day 3, and these amounts would cause little or no change on the outcome of a third day test. It should also be noted that all twelve of these animals has at least 85% ventricular ectopic beats on the morning after surgery in order to be accepted for testing.\nOn the third day post infarction the dogs were suspended in a standing position in a canvas sling. No anesthesia or sedation was used. ECGs were recorded as well as blood pressure. After a control period, an infusion of 20 μg/kg min. of 1-norepinephrine was begun using a Harvard infusion/withdrawal pump. This infusion lasted 120 minutes.\nThese five animals were all subjected to a two stage ligation of the anterior descending coronary artery. On day 1 and day 2 each dog was suspended in a canvas sling in the standing position and ECG, blood pressure, and other physiologic measurements were taken. […]"}, "heart [5]": {"tested_on": "heart", "assay": "Effect on heart contractility (maximum dP/dt) of the anesthetized dog", "format": "in vivo", "from_the_text": "as §1, §2, §3, §4, §5"}, "cardiac beta-receptors": {"tested_on": "cardiac beta-receptors", "assay": "Chronotropic (heart frequency) and inotropic (maximum dP/dt) effects in reserpinized, anesthetized, vagotomized cat", "format": "in vivo", "procedure": "Chronotropic (Heart Frequency) and Inotropic (Contractile Force) Effects\nThe mean blood pressure was regulated with an adjustable clamp around the descending aorta. All registrations were than able to be done at a constant pressure in aorta (afterload). The compounds were administered by infusion intravenously in increasing doses. The dose-response curves as regards the heart frequency and maximum dP/dt were constructed, from which the ED50 -values were estimated.\nMaximum dP/dt is a measure of the contractile force of the heart, i.e. inotropy, but is influenced by changes in the heart frequency, filling pressure (preload) and aortic blood pressure (afterload). In this test, a comparison between inotropic and chronotropic effects can be done at the same heart frequency. Further, the aortic blood pressure is kept constant."}, "[6]": {"molecular_target": "T1, beta-receptors of the heart", "assay": "Heart frequency increase before and after beta-blockade with Inderal", "format": "in vivo, cat", "conditions": "0.01 mg/kg bodyweight i.v.", "procedure": "as §7"}, "[7]": {"conditions": "20 minutes after administration, ouabain versus compound I"}, "[8]": {"conditions": "anesthetized dog, i.v. infusion"}}, "note": "“Also recorded” adds a separate entry of the source."}
{"smiles": "CC(C)NCC(O)COc1ccc(O)cc1", "note": "(stereo not drawn) [Compound I, 1-isopropylamino-3-(p-hydroxyphenoxy)-propanol-2]", "values": [{"measurement": "RVR or spontaneous arrhythmia (in words)", "setting": "heart [1]; compound I 10 and 20 μg/kg bodyweight", "value": "did not in any case cause RVR or spontaneous arrhythmia"}, {"measurement": "arrhythmogenic effect in relation to inotropic effect, versus ouabain (in words)", "setting": "heart [1]; dog, in vivo", "value": "evidently less arrhythmogenic effect than ouabain"}, {"measurement": "Selectivity: ED50 Vasodilatation / ED50 Heart Frequency", "setting": "[2]", "value": "> 100"}, {"measurement": "ED50", "setting": "[3]; cat, iv, read-out: ED50 Heart Frequency", "value": 6, "unit": "µg/kg"}, {"measurement": "potency relative to isoprenaline, chronotropic effect", "setting": "[3]; isoprenaline = 1, cat i.v.", "value": "about 1/100"}, {"measurement": "ectopic activity in postdrug observation period", "setting": "heart [4]; 60 minutes after compound I infusion", "value": "essentially no ectopic activity"}, {"measurement": "arrhythmogenic effect (in words)", "setting": "heart [4]; compound I 1.0 mg/kg/min i.v. for twenty minutes, day 3 post infarct", "value": "not arrhythmogenic; also recorded: the few ectopic beats seen during the predrug control were slightly suppressed; also recorded: lacks arrhythmogenic properties"}, {"measurement": "increase of aortic blood pressure", "setting": "heart [5]; 20 minutes after administration", "value": "no effect"}, {"measurement": "doses giving approximately the same level of maximum dP/dt (lower pair)", "setting": "heart [5]; [7]", "value": "about 10 μg/kg bodyweight"}, {"measurement": "doses giving corresponding effect on maximum dP/dt (higher pair)", "setting": "heart [5]; [7]", "value": 20, "unit": "μg/kg bodyweight"}, {"measurement": "effect on maximum dP/dt (in words)", "setting": "heart [5]; [8]", "value": "increased the maximum dP/dt"}, {"measurement": "onset of effect on maximum dP/dt", "setting": "heart [5]; [8]", "value": "immediate"}, {"measurement": "reduction of effect on maximum dP/dt after 50 minutes", "setting": "heart [5]; [8]", "value": "almost completely reduced after 50 minutes"}, {"measurement": "ventricular contractility compared with ouabain (in words)", "setting": "heart [5]; at same increase of maximum dP/dt", "value": "increased the ventricular contractility a little more than ouabain"}, {"measurement": "auricle pressure (filling pressure)", "setting": "cardiac beta-receptors; cat, i.v. infusion", "value": "decreased"}, {"measurement": "affinity to cardiac beta-receptors giving inotropic versus chronotropic effects (in words)", "setting": "cardiac beta-receptors; in vivo", "value": "higher affinity to cardiac beta-receptors, which give inotropic effects, than to beta-receptors in the sinus-node region, which give chronotropic effects"}, {"measurement": "increase of heart frequency, given after Inderal", "setting": "[6]; after 0.2 mg/kg i.v. Inderal", "value": 10, "unit": "beats/minute"}, {"measurement": "increase of heart frequency, given before Inderal", "setting": "[6]; before Inderal, average", "value": 60, "unit": "beats/minute"}]}
